# From PMC12649549, “Sequence Permutation Generated Lysine and Tryptophan-Rich Antimicrobial Peptides with Enhanced Therapeutic Index” (Antibiotics, 2025)
# Like-named read-outs stand apart in the source and are kept apart here.
# Columns and labels:
# [1] = tested on: Pseudomonas aeruginosa Migula (ATCC 27853)
# Protocol: (§1) The antibacterial and salt-resistant activity of the peptides was tested using Escherichia coli (ATCC 25922), Pseudomonas aeruginosa Migula (ATCC 27853), Acinetobacter sp. (BCRC number 14B0091, BCRC number 14B0097, and BCRC number 14B0100), and Staphylococcus aureus sp. strains (ATCC 25923, ATCC 33591, ATCC 33592, ATCC 33593, and ATCC 6538). All bacteria were obtained from the Food Industry Research and Development Institute (Hsinchu, Taiwan) and cultured in sterilized Müller-Hinton (MH) broth at 37 °C and 200 rpm for 8 h. The inoculum concentrations were determined by measuring the optical density at 600 nm (OD 600 = 1, approximately 10^8 CFU/mL) using an Ultrospec 2100 pro UV-Visible spectrophotometer (Biochrom Ltd., Cambridge, UK) after 8 h of culture.
# (§2) The antibacterial activities of the peptides in Müller-Hinton (MH) broth and modified LYM broth were determined using the standard broth microdilution method as per Clinical and Laboratory Standards Institute (CLSI) guidelines. The LYM broth was prepared with specific components and adjusted to different conditions, including varying concentrations of NaCl and MgCl2, and different pH levels. To prepare the LYM broth, 5.4 mM KCl, 5.6 mM Na2HPO4, 0.5 mM MgSO4, and 1.0 mM sodium citrate were added. Additionally, 0.4 mg of ZnCl2, 2.0 mg of FeCl3·6H2O, 0.1 mg of CuSO4·5H2O, 0.1 mg of MnSO4·H2O, 0.1 mg of Na2B4O7∙10H2O, 700 mg of amino acid mixtures without tryptophan (Takara Bio Inc., San Jose, CA, USA), and 20 mg of L-tryptophan were added per liter of medium. The pH was adjusted to 7.4, and a vitamin mixture (100X, Sigma) and glucose concentration of 2% were added. For different conditions of LYM broth, NaCl concentrations of 300, 200, 150, and 50 mM, MgCl2 concentrations of 2.5, 1.5, and 0.5 mM, and pH levels of 6.5, 5.5, and 4.5 were adjusted. Bacterial strains were incubated in MH broth overnight, regrown, and diluted to a final concentration of 5 × 10^5 CFU/mL. Peptides were added to each well at final concentrations of 50, 25, 12.5, 6.25, 3.13, 1.56, and 0.78 µg/mL, and 99 µL of diluted microbes was loaded into each well of a polypropylene 96-well plate. […] The Morpheus HeatMap software (https://software.broadinstitute.org/morpheus/) was used to display MIC values on a color scale. All experiments were independently repeated three times.
# [2] = tested on: A. baumannii 14B0091 (Acinetobacter sp., BCRC number 14B0091)
# Protocol: as §1, §2
# [3] = tested on: A. baumannii 14B0097 (Acinetobacter sp., BCRC number 14B0097)
# Protocol: as §1, §2
# [4] = tested on: Escherichia coli (ATCC 25922)
# Protocol: as §1, §2
# [5] = tested on: S. aureus ATCC 6538
# Protocol: as §1, §2
# [6] = tested on: S. aureus ATCC 25923
# Protocol: as §1, §2
# [7] = tested on: Both Gram-positive and -negative bacteria; assay: Geometric mean MIC, therapeutic index and fold changes of MIC, whole panel of strains; assay type: cell-based
# Protocol: (§3) In this study, we aimed to investigate the potential of W5K series peptides for therapeutic use. To evaluate their efficacy for antibacterial therapy, we used the Therapeutic Index (TI) as a measure of their cell selectivity. The TI was calculated as the ratio of the concentration causing 10% hemolysis of human red blood cells (HC10) to the geometric mean minimum inhibitory concentration (GM) of the peptides against both Gram-negative and Gram-positive bacteria. This parameter was used to quantitatively assess the balance between antibacterial potency and cytotoxicity among the W5K derivatives.
# as §2
# [8] = tested on: Gram-negative bacteria; assay: Geometric mean MIC and therapeutic index, Gram-negative bacteria; assay type: cell-based; details: Gram-negative bacteria
# Protocol: as §3, §2
# [9] = LYM broth, 0 mM NaCl, 16 h, 37 °C
# [10] = LYM broth, 50 mM NaCl, 16 h, 37 °C
# [11] = LYM broth, 100 mM NaCl, 16 h, 37 °C
# [12] = LYM broth, 200 mM (NaCl), 16 h, 37 °C
# [13] = LYM broth, 300 mM (NaCl), 16 h, 37 °C
# [14] = MH broth, 5 × 10^5 CFU/mL, 16 h, 37 °C, repeated three times
substance,measurement,setting,value
Ac-AKKKKWRKWLKWL-NH2 [Peptide W5K10],MIC,[1]; [9],3.13 µg/mL
same,MIC,"[1]; LYM broth, 0.5 mM MgCl2",3.13 µg/mL
same,MIC,"[1]; LYM broth, 1.5 mM MgCl2",3.13 µg/mL
same,MIC,"[1]; LYM broth, 2.5 mM MgCl2",6.25 µg/mL
same,MIC,[1]; [10],6.25 µg/mL
same,MIC,[1]; [11],6.25 µg/mL
same,MIC,[1]; [12],12.5 µg/mL
same,MIC,[1]; [13],25 µg/mL
same,MIC,"[1]; LYM broth, pH 4.5",3.13 µg/mL
same,MIC,"[1]; LYM broth, pH 5.5",3.13 µg/mL
same,MIC,"[1]; LYM broth, pH 6.5",1.56 µg/mL
same,MIC,[1]; [14],6.25 µg/mL
same,MIC,[2]; [9],1.56 µg/mL
same,MIC,"[2]; LYM broth, 0.5 mM MgCl2",1.56 µg/mL
same,MIC,"[2]; LYM broth, 1.5 mM MgCl2",1.56 µg/mL
same,MIC,"[2]; LYM broth, 2.5 mM MgCl2",3.13 µg/mL
same,MIC,[2]; [10],1.56 µg/mL
same,MIC,[2]; [11],1.56 µg/mL
same,MIC,[2]; [12],1.56 µg/mL
same,MIC,[2]; [13],3.13 µg/mL
same,MIC,"[2]; LYM broth, pH 4.5",3.13 µg/mL
same,MIC,"[2]; LYM broth, pH 5.5",1.56 µg/mL
same,MIC,"[2]; LYM broth, pH 6.5",1.56 µg/mL
same,MIC,[2]; [14],1.56 µg/mL
same,MIC,[3]; [9],1.56 µg/mL
same,MIC,"[3]; LYM broth, 0.5 mM MgCl2",1.56 µg/mL
same,MIC,"[3]; LYM broth, 1.5 mM MgCl2",1.56 µg/mL
same,MIC,"[3]; LYM broth, 2.5 mM MgCl2",3.13 µg/mL
same,MIC,[3]; [10],1.56 µg/mL
same,MIC,[3]; [11],1.56 µg/mL
same,MIC,[3]; [12],1.56 µg/mL
same,MIC,[3]; [13],6.25 µg/mL
same,MIC,"[3]; LYM broth, pH 4.5",3.13 µg/mL
same,MIC,"[3]; LYM broth, pH 5.5",1.56 µg/mL
same,MIC,"[3]; LYM broth, pH 6.5",1.56 µg/mL
same,MIC,[3]; [14],1.56 µg/mL
same,MIC,[4]; [9],3.13 µg/mL
same,MIC,"[4]; LYM broth, 0.5 mM MgCl2",3.13 µg/mL
same,MIC,"[4]; LYM broth, 1.5 mM MgCl2",6.25 µg/mL
same,MIC,"[4]; LYM broth, 2.5 mM MgCl2",6.25 µg/mL
same,MIC,[4]; [10],3.13 µg/mL
same,MIC,[4]; [11],12.5 µg/mL
same,MIC,[4]; [12],12.5 µg/mL
same,MIC,[4]; [13],25 µg/mL
same,MIC,"[4]; LYM broth, pH 4.5",3.13 µg/mL
same,MIC,"[4]; LYM broth, pH 5.5",1.56 µg/mL
same,MIC,"[4]; LYM broth, pH 6.5",1.56 µg/mL
same,MIC,[4]; [14],6.25 µg/mL
same,MIC,[5]; [9],1.56 µg/mL
same,MIC,"[5]; LYM broth, 0.5 mM MgCl2",1.56 µg/mL
same,MIC,"[5]; LYM broth, 1.5 mM MgCl2",1.56 µg/mL
same,MIC,"[5]; LYM broth, 2.5 mM MgCl2",1.56 µg/mL
same,MIC,[5]; [10],1.56 µg/mL
same,MIC,[5]; [11],3.13 µg/mL
same,MIC,[5]; [12],6.25 µg/mL
same,MIC,[5]; [13],12.5 µg/mL
same,MIC,"[5]; LYM broth, pH 4.5",6.25 µg/mL
same,MIC,"[5]; LYM broth, pH 5.5",3.13 µg/mL
same,MIC,"[5]; LYM broth, pH 6.5",1.56 µg/mL
same,MIC,[5]; [14],6.25 µg/mL
same,MIC,[6]; [9],3.13 µg/mL
same,MIC,"[6]; LYM broth, 0.5 mM MgCl2",1.56 µg/mL
same,MIC,"[6]; LYM broth, 1.5 mM MgCl2",3.13 µg/mL
same,MIC,"[6]; LYM broth, 2.5 mM MgCl2",3.13 µg/mL
same,MIC,[6]; [10],3.13 µg/mL
same,MIC,[6]; [11],6.25 µg/mL
same,MIC,[6]; [12],12.5 µg/mL
same,MIC,[6]; [13],25 µg/mL
same,MIC,"[6]; LYM broth, pH 4.5",3.13 µg/mL
same,MIC,"[6]; LYM broth, pH 5.5",3.13 µg/mL
same,MIC,"[6]; LYM broth, pH 6.5",3.13 µg/mL
same,MIC,[6]; [14],6.25 µg/mL
same,GM G−/+ (geometric mean of the MIC values),"[7]; Both Gram-positive and -negative bacteria, MH broth, MIC >50 µg/mL counted as 100 µg/mL",5.4 µg/mL
same,Therapeutic Index (TI) G−/+,"[7]; HC10/GM, both Gram-positive and -negative bacteria",20.0
same,weakening of antibacterial efficacy (MIC),"[7]; LYM broth, 300 mM NaCl",up to 4 fold
same,GM G− (geometric mean of the MIC values),"[8]; MH broth, MIC >50 µg/mL counted as 100 µg/mL",3.1 µg/mL
same,Therapeutic Index (TI) G−,[8]; HC10/GM,34.8
